Results on 14 molecules are retold here after BindingDB's records for doi:10.1016/j.bioorg.2015.10.005 (Hazara University, 2015).

For the assay, the target named is Urease subunit alpha (Sporosarcina pasteurii, UniProt P41020). Kind of assay: Urease Inhibition Assay. Conditions: pH 7. As to the method: This assay was modified from Berthelot assay and was employed for the determination of urease activity. The assay is based on the hydrolysis of urea into ammonia which reacts with phenol-hypochlorite to form light blue colored complex measured at 625 nm. A total volume of 85 µl assay mixture contained 10 µl of 50 mM phosphate buffer, pH 7.0, 10 µl of sample solution and 25 µl of Bacillus pasteurii urease (Sigma) solution (0.015 units). The contents were pre-incubated at 37 °C for 10 min. Then, 40 µl of urea stock solution (20 mM) was added to each well and incubation continued at 37 °C for further 10 min and preread at 625 nm using the 96-well plate reader Synergy HT (Biotek Inc.). Phenol hypochlorite (115 µl) reagent was added in each well (freshly prepared by mixing 45 µl phenol reagent with 70 µl of alkali reagent). For color development, incubation was done at 37 °C for another 10 min. Absorbance was again measured at 625 nm.
Sequence of Urease subunit alpha (P41020 as listed by the source): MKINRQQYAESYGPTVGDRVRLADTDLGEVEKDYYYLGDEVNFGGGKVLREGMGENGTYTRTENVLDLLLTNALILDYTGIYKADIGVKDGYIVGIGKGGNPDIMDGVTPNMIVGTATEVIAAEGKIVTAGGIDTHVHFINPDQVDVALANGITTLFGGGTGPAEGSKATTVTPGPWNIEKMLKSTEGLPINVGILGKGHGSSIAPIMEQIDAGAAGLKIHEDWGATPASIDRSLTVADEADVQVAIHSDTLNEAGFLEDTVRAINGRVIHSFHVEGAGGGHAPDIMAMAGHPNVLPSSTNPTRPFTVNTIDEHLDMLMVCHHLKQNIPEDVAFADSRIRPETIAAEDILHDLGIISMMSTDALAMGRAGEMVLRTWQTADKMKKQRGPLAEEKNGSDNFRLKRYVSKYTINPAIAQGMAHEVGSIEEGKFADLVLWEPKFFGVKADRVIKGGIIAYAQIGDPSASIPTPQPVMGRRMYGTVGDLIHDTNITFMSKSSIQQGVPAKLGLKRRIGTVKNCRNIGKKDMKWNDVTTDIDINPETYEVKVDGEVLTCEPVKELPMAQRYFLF

For orientation: IC50 means the concentration at which inhibition is half-maximal. For `O=C1CSC(N/N=C/c2ccc([N+](=O)[O-])cc2)=N1` [(E)-2((E)-(4-Nitrobenzylidene)hydrazono)thiazolidine-4-one (2)], the IC50 was determined as 26.9 µM.

`O=C1CS/C(=N/N=C/c2cccc([N+](=O)[O-])c2)N1` [(E)-2((E)-(3-nitrobenzylidene)hydrazono)thiazolidin-4-one (8)]: the IC50 came to 8.43 µM.

Take `O=C1CS/C(=N/N=C\c2ccc(O)c(Cl)c2)N1` [(E)-2-((E)-(3-Chloro-4-hydroxybenzylideno)thiazolidin-4-one (3)]: the IC50 worked out at 9.34 µM.

Consider `COc1cccc(/C=N/N=C2\NC(=O)CS2)c1OC` [(E)-2-((E)-(2,3-Dimethoxybenzylidene)hydrazono)thiazolidin-4-one (4)], for which the half-inhibitory concentration (IC50) came out at 52.5 µM.

As to `O=C1CS/C(=N/N=C\c2ccc(O)cc2)N1` [(E)-2((E)-(4-Hydroxybenzylidin)hydrazono)thiazolidine-4-one (6)], the IC50 came out at 14.6 µM.

For `O=C1CS/C(=N/N=C/c2cc(Cl)cc(Cl)c2O)N1` [(E)-2-((E)-(3,5-Dichloro-2-hydroxybenzylidene)hydrazono)thiazolidin-4-one (5)], the half-inhibitory concentration (IC50) is 26.7 µM.

Take `NC(N)=S` [thiocarbamide]: the IC50 turned out to be 21.2 µM.

As for `COc1ccc(/C=N\N=C2/NC(=O)CS2)c(OC)c1` [(Z)-2-((Z)-(2,4-Dimethoxybenzoylidine)hydrazono)thiazolidine-4-one (18)], the IC50 was 69.6 µM.

As to `COc1cc(/C=N/N=C2\NC(=O)CS2)cc(OC)c1O` [(E)-2-((E)-(4-Hyrazoxy-3,5-dimethoxybenzylidene)hydrazono)thiazolidin-4-one (9)], the IC50 worked out at 37.9 µM.

Take `C/C(=N/N=C1\NC(=O)CS1)c1ccc([N+](=O)[O-])cc1Br` [(Z)-2-((Z)-(1-(2-Bromo-4-nitrophenyl)ethylidene)hydrazono)thiazolidine-4-one (15)]: the concentration for half-maximal inhibition (IC50) stood at 2.31 µM.

As to `CCOc1ccc(/C=N\N=C2/NC(=O)CS2)cc1OC` [(Z)-2-((Z)-(4-Ethoxy-3-methoxybenzoylidine)hydrazono)thiazolidine-4-one (17)], the IC50 was 5.75 µM.

Take `COc1cc(/C=N/N=C2\NC(=O)CS2)cc(Br)c1OC` [(E)-2((E)-(3-Bromo-4,5-dimethoxybenzylidene)hydrazono) thiazolidine-4-one (7)]: the IC50 came out at 36.6 µM.

As to `O=C1CS/C(=N/N=C\C2C=Nc3ccccc32)N1` (centres undefined) [(E)-2-(E)-((1H-Indole-3-yl)methylene)hydrazono)thiazolidine-4-one (16)], the IC50 worked out at 51.4 µM.

As to `O=C1CS/C(=N/N=C/c2ccccc2[N+](=O)[O-])N1` [(E)-2-((E)-(2-Nitrobenzylidene)hydrazono)thiazolidin-4-one (1)], the IC50 turned out to be 47.5 µM.
